Article PMC10249896, “AI-Assisted chemical probe discovery for the understudied Calcium-Calmodulin Dependent Kinase, PNCK” (PLOS Computational Biology, 2023)
Several values for one entry are separate records, joined by “and”; a condition that tells them apart may be missing. Equal entries are not always repeated.

Biological target: T1, PNCK Nano-luciferase fusion (Homo sapiens, UniProt Q6P2M8)
T1 construct: host or cells: HEK293
Assay: NanoBRET Target Engagement Intracellular Kinase Assay, cell-based PNCK binding screen and dose response in HEK293 cells
Conditions: for inhibition at 1 µM: compound 1uM, read-out: Avg. Normalized % Inhibition, 1uM, Nanobret; for inhibition at 1 µM / inhibition at 10 µM / IC50: HEK293; for inhibition at 1 µM / inhibition at 10 µM: K10 tracer 1uM, normalized to staurosporine and DMSO; for inhibition at 10 µM: compound 10uM, read-out: Avg. Normalized % Inhibition, 10uM, Nanobret; for IC50: 8-point concentration-response
Experimental: The NanoBRET Target Engagement Intracellular Kinase Assay (Promega N2520) is a cell-based binding screen which reads loss of BRET signal as a result of target binding. A PNCK Nano-luciferase fusion vector plasmid was generated custom by Promega. The K-10 tracer was used for the assay, as determined by Promega. The plasmid was maxiprepped by Genewiz for use in all future assays. HEK293 cells were seeded in a T175 flask in DMEM with 10% FBS. The following day, cells were counted to 10,000, resuspended in assay media (Optimem with no phenol red, 1% FBS). Plasmid and transfection reagent (Fugene HD, Promega E2311) were added to the mixture and cells were seeded in a white 96-well plate. After 20–24 hours, media was changed, and the assay proceeded according to protocol. K10 tracer was added at the recommended concentration of 1uM while compounds were initially screened at both 10uM and 1uM. Cells incubated with compound at 37 degrees Celsius for a maximum of 2 hours before the plate was read using Clariostar Plus. Data was normalized to Staurosporine and DMSO controls. For compounds selected for further analysis, dose response curves were generated using the same testing protocol but at 8 different concentrations: 24uM, 12uM, 6uM, 3uM, 1.5uM, .75uM 0.375uM and 0.1875uM. UM195 was tested with concentrations from 12uM to 0.09375. Similarly, compounds from the analog by catalog analysis were tested at concentrations from 24uM to 0.1875uM.
Data analysis of ADP Kinase Glo results were carried out per the manufacturer’s instructions. Results were represented as a percent decrease in activity. Data was normalized to staurosporine (positive control) as 100% decrease and DMSO (negative control) as a 0% decrease. Data for NanoBRET was analyzed by dividing the acceptor by the donor emission and […] to obtain raw millibret units (mBU). Background was subtracted using control emission averages. Data was normalized to positive and negative controls of staurosporine and DMSO. Concentration-response curves were plotted in GraphPad Prism 8 and IC50s were extrapolated using non-linear fit with concentrations transformed to logarithmic scale. Baseline was held constant and represented the average mBU of staurosporine controls while the top was constrained to represent the average mBU of DMSO controls. Error bars on dose-response curves represent standard deviations.

T1 sequence (Q6P2M8 whole entry, the tested form may be a part): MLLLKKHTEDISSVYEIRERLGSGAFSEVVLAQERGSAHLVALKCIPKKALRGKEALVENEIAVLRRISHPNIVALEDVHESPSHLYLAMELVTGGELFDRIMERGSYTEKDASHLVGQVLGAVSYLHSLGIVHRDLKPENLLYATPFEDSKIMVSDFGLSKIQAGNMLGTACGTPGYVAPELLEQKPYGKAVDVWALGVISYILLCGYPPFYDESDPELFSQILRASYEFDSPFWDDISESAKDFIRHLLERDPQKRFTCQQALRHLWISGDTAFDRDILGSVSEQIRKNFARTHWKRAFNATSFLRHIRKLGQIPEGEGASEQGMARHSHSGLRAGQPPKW

Row | Compound | inhibition at 1 µM [%] | inhibition at 10 µM [%] | also measured
1 | Cc1nc2c(sc3nc(N4CCOCC4)c4c(c32)CC(C)(C)OC4)c(=O)o1 [UM_225] | 21.7 | 47.7 | 
2 | Clc1nc(-c2cccnc2)nc2sc3c(c12)CCCC3 [UM_209] | 5.53 | 55.3 | 
3 | O=C1CNC(=O)N1CCCOc1ccc2c3c(c(=O)oc2c1)CCCCC3 [UM_258] | 27.9 | 74 | 
4 | COc1ccc2c(O)c(C(=O)N(C)Cc3c(C)noc3C)cnc2c1 [UM_200] | 0 | 17.7 | 
5 | Cc1ccc2[nH]c(SCc3cc(=O)n4ccccc4n3)nc2c1 [UM_197] | 1.23 | 27 | 
6 | CCc1nc(N)nc(SCCCn2c(=O)[nH]c3ccccc32)n1 [UM_276] | 10.9 | 37.8 | 
7 | O=C(c1c(F)cc(F)cc1F)C1CCN(C(=O)c2ccnnc2)CC1 [UM_212] | 0 | 49.9 | 
8 | O=C(O)CCc1nnc(SCc2c(Cl)cccc2Cl)[nH]c1=O [UM_193] | 0 | 0 | cell permeability (stated on testing in NanoBRET assay): not cell permeable
9 | O=c1[nH]c(CSc2ccc3ccccc3n2)nc2ccc(Cl)cc12 [UM_210, 6-chloro-2-[(quinolin-2-ylsulfanyl)methyl]-3,4-dihydroquinazolin-4-one] | 41.2 | 98.5 | IC50: 8.09 µM; Dose-Response Curve Data (NanoBRET signal, replicates) (Concentration 1.20E-05 M): 7.35 and 5.53 and 7.51 and 6.90; Dose-Response Curve Data (NanoBRET signal, replicates) (Concentration 1.50E-06 M): 8.14 and 8.22 and 8.79 and 8.09; Dose-Response Curve Data (NanoBRET signal, replicates) (Concentration 1.88E-07 M): 8.61 and 9.43 and 9.50 and 8.74; Dose-Response Curve Data (NanoBRET signal, replicates) (Concentration 2.40E-05 M): 4.79 and 5.28 and 5.02 and 4.59; Dose-Response Curve Data (NanoBRET signal, replicates) (Concentration 3.00E-06 M): 7.91 and 7.57 and 6.47 and 7.46; Dose-Response Curve Data (NanoBRET signal, replicates) (Concentration 3.75E-07 M): 9.79 and 9.21 and 8.99 and 8.71; Dose-Response Curve Data (NanoBRET signal, replicates) (Concentration 6.00E-06 M): 7.06 and 7.86 and 6.98 and 6.97; Dose-Response Curve Data (NanoBRET signal, replicates) (Concentration 7.50E-07 M): 8.34 and 8.97 and 8.05 and 9.09
10 | Cc1noc2ncnc(N3CCC(n4c(C)nc5ccccc54)CC3)c12 [UM_215] | 0 | 19.4 | 
11 | Cc1ccnc2nc(C(=O)OCC(=O)c3ccc(Cl)cc3Cl)nn12 [UM_198] | 2.17 | 22.7 | 
12 | O=C(O)c1cccnc1SCCCN1C(=O)c2cccc3cccc(c23)C1=O [UM_216] | 2.34 | 25.4 | 
13 | Cc1cc(C)n2nc(SCc3nc(-c4ccccc4)no3)nc2n1 [UM_217] | 10.5 | 49.3 | 
14 | O=C(O)c1cccc(S(=O)(=O)Nc2nc3ccc(Cl)cc3s2)c1 [UM_203] | 5.12 | 22.7 | 
15 | c1ccc2c(c1)ccn2CCc1nc(-c2cnccn2)no1 [UM_202] | 0 | 21.5 | 
16 | N#Cc1cnc(Sc2nnc(-c3cccc4ccccc34)o2)cn1 [UM_195, 5-[5-(naphthalen-1-yl)-1,3,4-oxadiazol-2-yl]sulfanylpyrazine-2-carbonitrile] | 22.1 | 100 | IC50: 3.36 µM; Dose-Response Curve Data (NanoBRET signal, replicates) (Concentration 1.20E-05 M): 5.32 and 5.59 and 5.20; Dose-Response Curve Data (NanoBRET signal, replicates) (Concentration 1.50E-06 M): 7.80 and 7.94 and 7.90; Dose-Response Curve Data (NanoBRET signal, replicates) (Concentration 1.88E-07 M): 9.08 and 9.29 and 8.92; Dose-Response Curve Data (NanoBRET signal, replicates) (Concentration 3.00E-06 M): 7.45 and 6.56 and 7.25; Dose-Response Curve Data (NanoBRET signal, replicates) (Concentration 3.75E-07 M): 9.32 and 8.97 and 9.18; Dose-Response Curve Data (NanoBRET signal, replicates) (Concentration 6.00E-06 M): 5.79 and 6.12 (2×); Dose-Response Curve Data (NanoBRET signal, replicates) (Concentration 7.50E-07 M): 8.84 and 8.55 and 8.27; Dose-Response Curve Data (NanoBRET signal, replicates) (Concentration 9.38E-08 M): 9.33 and 9.39 and 8.87
17 | O=C(COc1ccc2c3c(c(=O)oc2c1)CCCCC3)N1CCc2ccccc21 [UM_213, 3-[2-(2,3-dihydro-1H-indol-1-yl)-2-oxoethoxy]-6H,7H,8H,9H,10H,11H-cyclohepta [c]chromen-6-one] | 56.7 | 91.5 | IC50: 9.49 µM; Dose-Response Curve Data (NanoBRET signal, replicates) (Concentration 1.20E-05 M): 7.35 and 7.43 (2×); Dose-Response Curve Data (NanoBRET signal, replicates) (Concentration 1.50E-06 M): 8.59 and 8.87 and 8.44; Dose-Response Curve Data (NanoBRET signal, replicates) (Concentration 1.88E-07 M): 8.66 and 8.93 and 8.52; Dose-Response Curve Data (NanoBRET signal, replicates) (Concentration 2.40E-05 M): 6.31 and 6.47 and 6.34; Dose-Response Curve Data (NanoBRET signal, replicates) (Concentration 3.00E-06 M): 8.12 and 8.73 and 8.41; Dose-Response Curve Data (NanoBRET signal, replicates) (Concentration 3.75E-07 M): 8.92 and 8.51 and 8.71; Dose-Response Curve Data (NanoBRET signal, replicates) (Concentration 6.00E-06 M): 8.04 and 8.33 and 8.32; Dose-Response Curve Data (NanoBRET signal, replicates) (Concentration 7.50E-07 M): 8.68 and 8.62 and 8.88
18 | COc1ccc2[nH]c(SCc3cc(=O)n4c(C)cccc4n3)nc2c1 [UM_196] | 3.82 | 30.5 | 
19 | CC1(C)CCc2c(sc(NC(=O)c3ccc(Cl)s3)c2C(N)=O)C1 [UM_260] | 4.8 | 31.2 | 
20 | CCOCCn1c(CN2CCN(CC)CC2)nc2c1c(O)nc(=O)n2C [UM_227] | 22.4 | 49.4 | 
21 | O=C(O)c1ccc(-c2nc(O)c3c4c(sc3n2)CCCC4)cc1 [UM_233] | 7.37 | 14.2 | 
